Source: PubChem BioAssay (NCI)
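These data come from cells grown in 96-well plates and exposed to compound for 48 hours at five concentrations. Abbreviation: GI50, concentration required for 50% inhibition of growth. The concentration for full growth arrest is given as TGI.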

Legend:
Assay in all cases: DTP human tumour cell line panel, 48 h
786-0 renal = test system: 786-0 renal
A498 renal = test system: A498 renal
A549 NSCLC = test system: A549 NSCLC
ACHN renal = test system: ACHN renal
BT-549 breast = test system: BT-549 breast
CAKI-1 renal = test system: CAKI-1 renal
CCRF-CEM leukemia = test system: CCRF-CEM leukemia
COLO 205 colon = test system: COLO 205 colon
DU-145 prostate = test system: DU-145 prostate
EKVX NSCLC = test system: EKVX NSCLC
HCC-2998 colon = test system: HCC-2998 colon
HCT-116 colon = test system: HCT-116 colon
HCT-15 colon = test system: HCT-15 colon
HL-60(TB) leukemia = test system: HL-60(TB) leukemia
HOP-62 NSCLC = test system: HOP-62 NSCLC
HOP-92 NSCLC = test system: HOP-92 NSCLC
HS 578T breast = test system: HS 578T breast
HT29 colon = test system: HT29 colon
IGROV1 ovarian = test system: IGROV1 ovarian
K-562 leukemia = test system: K-562 leukemia
KM12 colon = test system: KM12 colon
LOX IMVI melanoma = test system: LOX IMVI melanoma
M14 melanoma = test system: M14 melanoma
MALME-3M melanoma = test system: MALME-3M melanoma
MCF7 breast = test system: MCF7 breast
MDA-MB-231 breast = test system: MDA-MB-231 breast
MDA-MB-435 = test system: MDA-MB-435
MOLT-4 leukemia = test system: MOLT-4 leukemia
NCI-H226 lung = test system: NCI-H226 lung
NCI-H23 lung = test system: NCI-H23 lung
NCI-H460 lung = test system: NCI-H460 lung
NCI-H522 lung = test system: NCI-H522 lung
NCI/ADR-RES ovarian = test system: NCI/ADR-RES ovarian
OVCAR-3 ovarian = test system: OVCAR-3 ovarian
OVCAR-4 ovarian = test system: OVCAR-4 ovarian
OVCAR-5 ovarian = test system: OVCAR-5 ovarian
OVCAR-8 ovarian = test system: OVCAR-8 ovarian
PC-3 prostate = test system: PC-3 prostate
RPMI-8226 leukemia = test system: RPMI-8226 leukemia
RXF 393 renal = test system: RXF 393 renal
SF-268 CNS = test system: SF-268 CNS
SF-295 CNS = test system: SF-295 CNS
SF-539 CNS = test system: SF-539 CNS
SK-MEL-2 melanoma = test system: SK-MEL-2 melanoma
SK-MEL-28 melanoma = test system: SK-MEL-28 melanoma
SK-MEL-5 melanoma = test system: SK-MEL-5 melanoma
SK-OV-3 ovarian = test system: SK-OV-3 ovarian
SN12C renal = test system: SN12C renal
SNB-19 CNS = test system: SNB-19 CNS
SNB-75 CNS = test system: SNB-75 CNS
SW-620 colon = test system: SW-620 colon
T-47D breast = test system: T-47D breast
TK-10 renal = test system: TK-10 renal
U251 CNS = test system: U251 CNS
UACC-257 melanoma = test system: UACC-257 melanoma
UACC-62 melanoma = test system: UACC-62 melanoma
UO-31 renal = test system: UO-31 renal

Compound `COC(=O)c1ccc([C@H]2c3[nH]c4ccccc4c3C[C@H](C(=O)OC)N2C(=O)CCl)cc1` has a GI50 (786-0 renal) of less than 0.01 µM, a TGI (786-0 renal) of less than 0.0169 µM and a GI50 (A498 renal) of 0.447 µM. For the same compound, the TGI (A498 renal) was 0.888 µM, the GI50 (A549 NSCLC) was 1.63 µM and the TGI (A549 NSCLC) was 10.5 µM. It also gave a GI50 (ACHN renal) of 0.234 µM, a TGI (ACHN renal) of 2.17 µM and a GI50 (BT-549 breast) of 1.23 µM. For the same compound, the TGI (BT-549 breast) was 2.57 µM, the GI50 (CAKI-1 renal) was 0.262 µM and the TGI (CAKI-1 renal) was 2.51 µM. The GI50 (CCRF-CEM leukemia) was 0.0223 µM, the TGI (CCRF-CEM leukemia) was 0.0839 µM and the GI50 (COLO 205 colon) was 2.33 µM. It also gave a TGI (COLO 205 colon) of 6.14 µM, a GI50 (DU-145 prostate) of 2.23 µM and a TGI (DU-145 prostate) of 12.3 µM. The GI50 (EKVX NSCLC) was 0.82 µM, the TGI (EKVX NSCLC) was 3.4 µM and the GI50 (HCC-2998 colon) was 1.75 µM. For the same compound, the TGI (HCC-2998 colon) was 3.38 µM, the GI50 (HCT-116 colon) was 1.47 µM and the TGI (HCT-116 colon) was 2.98 µM. The GI50 (HCT-15 colon) was 1.04 µM, the TGI (HCT-15 colon) was 2.65 µM and the GI50 (HL-60(TB) leukemia) was 0.113 µM. It also gave a TGI (HL-60(TB) leukemia) of 0.301 µM, a GI50 (HOP-62 NSCLC) of 0.997 µM and a TGI (HOP-62 NSCLC) of 4.44 µM. It also gave a GI50 (HOP-92 NSCLC) of 0.023 µM, a TGI (HOP-92 NSCLC) of 0.063 µM and a GI50 (HS 578T breast) of 1.48 µM. For the same compound, the TGI (HS 578T breast) was 5.98 µM, the GI50 (HT29 colon) was 0.298 µM and the TGI (HT29 colon) was 1.11 µM. For the same compound, the GI50 (IGROV1 ovarian) was 0.0858 µM, the TGI (IGROV1 ovarian) was 0.277 µM and the GI50 (K-562 leukemia) was 1.97 µM. The TGI (K-562 leukemia) was greater than 28 µM, the GI50 (KM12 colon) was 1.03 µM and the TGI (KM12 colon) was 4.39 µM. For the same compound, the GI50 (LOX IMVI melanoma) was less than 0.01 µM, the TGI (LOX IMVI melanoma) was less than 0.01 µM and the GI50 (M14 melanoma) was 1.94 µM. The TGI (M14 melanoma) was 5.11 µM, the GI50 (MALME-3M melanoma) was 0.157 µM and the TGI (MALME-3M melanoma) was 0.438 µM. For the same compound, the GI50 (MCF7 breast) was 1.75 µM, the TGI (MCF7 breast) was 4.95 µM and the GI50 (MDA-MB-231 breast) was 0.109 µM. For the same compound, the TGI (MDA-MB-231 breast) was 0.551 µM, the GI50 (MDA-MB-435) was 2.74 µM and the TGI (MDA-MB-435) was 11.1 µM. The GI50 (MOLT-4 leukemia) was 0.268 µM, the TGI (MOLT-4 leukemia) was 0.857 µM and the GI50 (NCI-H226 lung) was 2.21 µM. The TGI (NCI-H226 lung) was 5.94 µM, the GI50 (NCI-H23 lung) was 0.0549 µM and the TGI (NCI-H23 lung) was 0.375 µM. For the same compound, the GI50 (NCI-H460 lung) was 1.63 µM, the TGI (NCI-H460 lung) was 3.59 µM and the GI50 (NCI-H522 lung) was 0.0197 µM. The TGI (NCI-H522 lung) was 0.0435 µM, the GI50 (NCI/ADR-RES ovarian) was 0.0744 µM and the TGI (NCI/ADR-RES ovarian) was 0.333 µM. For the same compound, the GI50 (OVCAR-3 ovarian) was 0.672 µM, the TGI (OVCAR-3 ovarian) was 2.12 µM and the GI50 (OVCAR-4 ovarian) was 2.5 µM. For the same compound, the TGI (OVCAR-4 ovarian) was 9.87 µM, the GI50 (OVCAR-5 ovarian) was 1.44 µM and the TGI (OVCAR-5 ovarian) was 3.65 µM. It also gave a GI50 (OVCAR-8 ovarian) of 1.36 µM, a TGI (OVCAR-8 ovarian) of 7.93 µM and a GI50 (PC-3 prostate) of 0.845 µM. For the same compound, the TGI (PC-3 prostate) was 4.3 µM, the GI50 (RPMI-8226 leukemia) was 0.0405 µM and the TGI (RPMI-8226 leukemia) was 0.386 µM. The GI50 (RXF 393 renal) was 0.074 µM, the TGI (RXF 393 renal) was 0.723 µM and the GI50 (SF-268 CNS) was 1.9 µM. The TGI (SF-268 CNS) was 4.61 µM, the GI50 (SF-295 CNS) was 0.0804 µM and the TGI (SF-295 CNS) was 0.216 µM. The GI50 (SF-539 CNS) was 0.0899 µM, the TGI (SF-539 CNS) was 0.226 µM and the GI50 (SK-MEL-2 melanoma) was 2.03 µM. The TGI (SK-MEL-2 melanoma) was 4.89 µM, the GI50 (SK-MEL-28 melanoma) was 2.35 µM and the TGI (SK-MEL-28 melanoma) was 6.92 µM. The GI50 (SK-MEL-5 melanoma) was 2.3 µM, the TGI (SK-MEL-5 melanoma) was 5.93 µM and the GI50 (SK-OV-3 ovarian) was 1.72 µM. The TGI (SK-OV-3 ovarian) was 3.59 µM, the GI50 (SN12C renal) was 1.26 µM and the TGI (SN12C renal) was 2.89 µM. It also gave a GI50 (SNB-19 CNS) of 4.39 µM, a TGI (SNB-19 CNS) of 16 µM and a GI50 (SNB-75 CNS) of 0.334 µM. The TGI (SNB-75 CNS) was 0.843 µM, the GI50 (SW-620 colon) was 1.49 µM and the TGI (SW-620 colon) was 3.34 µM. It also gave a GI50 (T-47D breast) of 2.23 µM, a TGI (T-47D breast) of 13.3 µM and a GI50 (TK-10 renal) of 2.32 µM. It also gave a TGI (TK-10 renal) of 7.66 µM, a GI50 (U251 CNS) of 0.641 µM and a TGI (U251 CNS) of 1.99 µM. It also gave a GI50 (UACC-257 melanoma) of 3.87 µM, a TGI (UACC-257 melanoma) of 14.5 µM and a GI50 (UACC-62 melanoma) of 0.752 µM. For the same compound, the TGI (UACC-62 melanoma) was 2.21 µM, the GI50 (UO-31 renal) was 0.0283 µM and the TGI (UO-31 renal) was 0.108 µM.
